Source: patent publication US8304419B2, “Chemical compounds” (priority 2007, dated 2012)
Counter-ions that a name gives are not always drawn. Like-named read-outs stand apart in the source and are kept apart here.

Tested on: HIV wild type (WTRVA)
Assay: HeLa cell assay, wild type virus (WTRVA)
Format: cell-based, HIV-1
Set-up: scale not given here
Details: Human immunodeficiency virus 1, HeLa
[1] = HeLa cell assay, read-out: IC50 against WTRVA
[2] = HeLa-CD4-LTR-β-gal cells, wild type virus, read-out: WTRVA activity level

Compound	IC50 [1]	IC50 [2]
N#Cc1cc(Cl)cc(Oc2c(Cl)ccc(CNC(=O)c3[nH]ccc3Br)c2F)c1 [Example 204, 3-bromo-N-({4-chloro-3-[(3-chloro-5-cyanophenyl)oxy]-2-fluorophenyl}methyl)-1H-pyrrole-2-carboxamide]	< 10 nM	–
Cn1cnc(C(=O)NCc2ccc(Cl)c(Oc3cc(Cl)cc(C#N)c3)c2F)c1 [Example 64, N-({4-chloro-3-[(3-chloro-5-cyanophenyl)oxy]-2-fluorophenyl}methyl)-1-methyl-1H-imidazole-4-carboxamide trifluoroacetate]	–	10 to 1000 nM
COc1cc2cc(C(=O)NCc3ccc(Cl)c(Oc4cc(Cl)cc(C#N)c4)c3F)[nH]c2cn1 [Example 46, N-({4-chloro-3-[(3-chloro-5-cyanophenyl)oxy]-2-fluorophenyl}methyl)-5-(methyloxy)-1H-pyrrolo[2,3-c]pyridine-2-carboxamide trifluoroacetate]	–	< 10 nM
N#Cc1cc(Cl)cc(Oc2c(Cl)ccc(CNC(=O)c3cc4ccc(O)cc4[nH]3)c2F)c1 [Example 36, N-({4-chloro-3-[(3-chloro-5-cyanophenyl)oxy]-2-fluorophenyl}methyl)-6-hydroxy-1H-indole-2-carboxamide]	–	< 10 nM
C#Cc1cc(C#N)cc(Oc2c(Cl)ccc(CNC(=O)c3[nH]cnc3Cl)c2F)c1 [Example 310, 4-chloro-N-({4-chloro-3-[(3-cyano-5-ethynylphenyl)oxy]-2-fluorophenyl}methyl)-1H-imidazole-5-carboxamide]	< 10 nM	–
N#Cc1cc(Cl)cc(Oc2c(Cl)ccc(CNC(=O)c3snnc3-c3ccccc3)c2F)c1 [Example 99, N-({4-chloro-3-[(3-chloro-5-cyanophenyl)oxy]-2-fluorophenyl}methyl)-4-phenyl-1,2,3-thiadiazole-5-carboxamide]	–	> 1000 nM
N#Cc1cc(Cl)cc(Oc2c(Cl)ccc(Cn3cnc4cc[nH]c4c3=O)c2F)c1 [Example 369, 3-chloro-5-({6-chloro-2-fluoro-3-[(4-oxo-4,5-dihydro-3H-pyrrolo[3,2-d]pyrimidin-3-yl)methyl]phenyl}oxy)benzonitrile]	< 10 nM	–
CN(Cc1ccc(Cl)c(Oc2cc(Cl)cc(C#N)c2)c1F)C(=O)c1ncc[nH]1 [Example 130, N-({4-chloro-3-[(3-chloro-5-cyanophenyl)oxy]-2-fluorophenyl}methyl)-N-methyl-1H-imidazole-2-carboxamide]	–	< 10 nM
COc1ccc2[nH]c(C(=O)NCc3ccc(Cl)c(Oc4cc(Cl)cc(C#N)c4)c3)cc2c1 [Example 10, N-({4-chloro-3-[(3-chloro-5-cyanophenyl)oxy]phenyl}methyl)-5-(methyloxy)-1H-indole-2-carboxamide]	–	10 to 1000 nM
N#Cc1cc(Cl)cc(Oc2c(Cl)ccc(CNC(=O)c3[nH]c4ccccc4c3Cl)c2F)c1 [Example 75, 3-chloro-N-({4-chloro-3-[(3-chloro-5-cyanophenyl)oxy]-2-fluorophenyl}methyl)-1H-indole-2-carboxamide trifluoroacetate]	–	< 10 nM
Cc1c(C(=O)NCc2ccc(Cl)c(Oc3cc(Cl)cc(C#N)c3)c2F)[nH]c2ccc(Cl)cc12 [Example 40, 5-chloro-N-({4-chloro-3-[(3-chloro-5-cyanophenyl)oxy]-2-fluorophenyl}methyl)-3-methyl-1H-indole-2-carboxamide]	–	10 to 1000 nM
Cc1nnsc1C(=O)NCc1ccc(Cl)c(Oc2cc(Cl)cc(C#N)c2)c1F [Example 91, N-({4-chloro-3-[(3-chloro-5-cyanophenyl)oxy]-2-fluorophenyl}methyl)-4-methyl-1,2,3-thiadiazole-5-carboxamide]	–	< 10 nM
CCc1ccc(CNC(=O)c2[nH]c(N)nc2Cl)c(F)c1Oc1cc(Cl)cc(C#N)c1 [Example 251, 2-amino-4-chloro-N-({3-[(3-chloro-5-cyanophenyl)oxy]-4-ethyl-2-fluorophenyl}methyl)-1H-imidazole-5-carboxamide]	< 10 nM	–
COc1ccc2[nH]c(C(=O)NCc3ccc(Cl)c(Oc4cc(Cl)cc(C#N)c4)c3F)c(NC(C)=O)c2c1 [Example 56, 3-(acetylamino)-N-({4-chloro-3-[(3-chloro-5-cyanophenyl)oxy]-2-fluorophenyl}methyl)-5-(methyloxy)-1H-indole-2-carboxamide trifluoroacetate]	–	10 to 1000 nM
N#Cc1cc(Cl)cc(Oc2c(Cl)ccc(CNC(=O)c3cc4cc(NC(=O)c5cccnc5)ccc4[nH]3)c2F)c1 [Example 115, N-({4-chloro-3-[(3-chloro-5-cyanophenyl)oxy]-2-fluorophenyl}methyl)-5-[(3-pyridinylcarbonyl)amino]-1H-indole-2-carboxamide]	–	< 10 nM
C=Cc1cc(C#N)cc(Oc2c(Cl)ccc(CNC(=O)c3[nH]cnc3Cl)c2F)c1 [Example 143, 4-chloro-N-({4-chloro-3-[(3-cyano-5-ethenylphenyl)oxy]-2-fluorophenyl}methyl)-1H-imidazole-5-carboxamide]	< 10 nM	–

Compound	IC50 [1]	IC50 [2]
Cc1nc(Br)c(C(=O)NCc2cc(Br)c(Br)c(Oc3cc(Cl)cc(C#N)c3)c2F)[nH]1 [Example 234, 4-bromo-N-({4,5-dibromo-3-[(3-chloro-5-cyanophenyl)oxy]-2-fluorophenyl}methyl)-2-methyl-1H-imidazole-5-carboxamide trifluoroacetate]	< 10 nM	–
CC(C)c1nc(Cl)c(C(=O)NCc2ccc(Cl)c(Oc3cc(Cl)cc(C#N)c3)c2F)[nH]1 [Example 135, 4-chloro-N-({4-chloro-3-[(3-chloro-5-cyanophenyl)oxy]-2-fluorophenyl}methyl)-2-(1-methylethyl)-1H-imidazole-5-carboxamide trifluoroacetate]	–	< 10 nM
CCc1cc(Cl)cc(Oc2c(Cl)ccc(CNC(=O)c3[nH]cnc3Cl)c2F)c1 [Example 290, 4-chloro-N-({4-chloro-3-[(3-chloro-5-ethylphenyl)oxy]-2-fluorophenyl}methyl)-1H-imidazole-5-carboxamide]	< 10 nM	–
CN(C)CCCOc1ccc2[nH]c(C(=O)NCc3ccc(Cl)c(Oc4cc(Cl)cc(C#N)c4)c3F)cc2c1 [Example 102, N-({4-chloro-3-[(3-chloro-5-cyanophenyl)oxy]-2-fluorophenyl}methyl)-5-{[3-(dimethylamino)propyl]oxy}-1H-indole-2-carboxamide]	–	< 10 nM
N#Cc1cc(Cl)cc(Oc2c(Cl)ccc(CNC(=O)c3ccncc3)c2F)c1 [Example 89, N-({4-chloro-3-[(3-chloro-5-cyanophenyl)oxy]-2-fluorophenyl}methyl)-4-pyridinecarboxamide trifluoroacetate]	–	10 to 1000 nM
CNc1nc(Cl)c(C(=O)NCc2ccc(Cl)c(Oc3cc(Cl)cc(C#N)c3)c2F)[nH]1 [Example 363, 4-chloro-N-({4-chloro-3-[(3-chloro-5-cyanophenyl)oxy]-2-fluorophenyl}methyl)-2-(methylamino)-1H-imidazole-5-carboxamide trifluoroacetate]	< 10 nM	–
CCN(CC)S(=O)(=O)c1c[nH]c(C(=O)NCc2ccc(Cl)c(Oc3cc(Cl)cc(C#N)c3)c2F)c1 [Example 76, N-({4-chloro-3-[(3-chloro-5-cyanophenyl)oxy]-2-fluorophenyl}methyl)-4-[(diethylamino)sulfonyl]-1H-pyrrole-2-carboxamide trifluoroacetate]	–	10 to 1000 nM
N#Cc1cc(Cl)cc(Oc2c(Cl)ccc(CNC(=O)c3cc4cc(O)ccc4[nH]3)c2F)c1 [Example 26, N-({4-chloro-3-[(3-chloro-5-cyanophenyl)oxy]-2-fluorophenyl}methyl)-5-hydroxy-1H-indole-2-carboxamide]	–	< 10 nM
CCNc1nc(Cl)c(C(=O)NCc2ccc(Cl)c(Oc3cc(Cl)cc(C#N)c3)c2F)[nH]1 [Example 362, 4-chloro-N-({4-chloro-3-[(3-chloro-5-cyanophenyl)oxy]-2-fluorophenyl}methyl)-2-(ethylamino)-1H-imidazole-5-carboxamide trifluoroacetate]	< 10 nM	–
CC(C)(C)OC(=O)N1CCO[C@@H](COc2ccc3[nH]c(C(=O)NCc4ccc(Cl)c(Oc5cc(Cl)cc(C#N)c5)c4F)cc3c2)C1 [Example 23, 1,1-dimethylethyl (2R)-2-{[(2-{[({4-chloro-3-[(3-chloro-5-cyanophenyl)oxy]-2-fluorophenyl}methyl)amino]carbonyl}-1H-indol-5-yl)oxy]methyl}-4-morpholinecarboxylate]	–	10 to 1000 nM
N#Cc1cc(Cl)cc(Oc2c(Cl)ccc(CNC(=O)c3[nH]cnc3[N+](=O)[O-])c2F)c1 [Example 68, N-({4-chloro-3-[(3-chloro-5-cyanophenyl)oxy]-2-fluorophenyl}methyl)-4-nitro-1H-imidazole-5-carboxamide trifluoroacetate]	–	< 10 nM
CC(C)(C)OC(=O)Nc1cccc2cc(C(=O)NCc3ccc(Cl)c(Oc4cc(Cl)cc(C#N)c4)c3F)[nH]c12 [Example 112, 1,1-dimethylethyl (2-{[({4-chloro-3-[(3-chloro-5-cyanophenyl)oxy]-2-fluorophenyl}methyl)amino]carbonyl}-1H-indol-7-yl)carbamate]	–	10 to 1000 nM
CS(=O)(=O)c1ccc(C(=O)NCc2ccc(Cl)c(Oc3cc(Cl)cc(C#N)c3)c2F)c(Cl)c1 [Example 16, 2-chloro-N-({4-chloro-3-[(3-chloro-5-cyanophenyl)oxy]-2-fluorophenyl}methyl)-4-(methylsulfonyl)benzamide]	–	10 to 1000 nM
N#Cc1cc(Cl)cc(Oc2c(Cl)ccc(CNC(=O)c3[nH]c(C4CC4)nc3Cl)c2F)c1 [Example 136, 4-chloro-N-({4-chloro-3-[(3-chloro-5-cyanophenyl)oxy]-2-fluorophenyl}methyl)-2-cyclopropyl-1H-imidazole-5-carboxamide trifluoroacetate]	–	< 10 nM
N#Cc1cc(Cl)cc(Oc2c(Cl)ccc(CNC(=O)c3cc4ccc(C#N)cc4[nH]3)c2F)c1 [Example 79, N-({4-chloro-3-[(3-chloro-5-cyanophenyl)oxy]-2-fluorophenyl}methyl)-6-cyano-1H-indole-2-carboxamide trifluoroacetate]	–	< 10 nM
CN(C)c1ccc2[nH]c(C(=O)NCc3ccc(Cl)c(Oc4cc(Cl)cc(C#N)c4)c3F)cc2c1 [Example 126, N-({4-chloro-3-[(3-chloro-5-cyanophenyl)oxy]-2-fluorophenyl}methyl)-5-(dimethylamino)-1H-indole-2-carboxamide]	–	< 10 nM
